Measurements taken from US20230203058A1, “MACROCYCLIC DIAMINE DERIVATIVES AS ENT INHIBITORS FOR THE TREATMENT OF CANCERS, AND COMBINATION THEREOF WITH ADENOSINE RECEPTOR ANTAGONISTS” (ITEOS BELGIUM SA, priority 2020, published 2023).

biological target: T1, human ENT1 (Homo sapiens, UniProt Q99808); experiment: ENT1 binding assay (competition with Sahenta-DY647 on JAR cells); parameters: JAR cells expressing ENT1 were bought from ATCC® (HTB-144TM); host or cells: JAR cells (human choriocarcinoma line; whole cells); conditions: competition with Sahenta-DY647 100 nM, 4° C.
T1 sequence (Q99808 1-456): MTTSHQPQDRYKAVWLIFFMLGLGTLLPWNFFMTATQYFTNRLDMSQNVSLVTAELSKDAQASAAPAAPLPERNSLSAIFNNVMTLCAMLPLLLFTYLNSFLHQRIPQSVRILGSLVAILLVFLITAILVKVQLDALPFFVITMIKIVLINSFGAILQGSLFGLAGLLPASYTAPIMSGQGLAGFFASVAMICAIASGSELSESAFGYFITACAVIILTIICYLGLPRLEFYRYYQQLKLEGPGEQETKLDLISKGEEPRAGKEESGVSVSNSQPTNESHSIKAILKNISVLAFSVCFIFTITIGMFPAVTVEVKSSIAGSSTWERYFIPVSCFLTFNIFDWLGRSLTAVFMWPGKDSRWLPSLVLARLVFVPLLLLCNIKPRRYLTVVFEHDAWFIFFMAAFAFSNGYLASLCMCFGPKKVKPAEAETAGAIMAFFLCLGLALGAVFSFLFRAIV
Experimental: The present assay aims at showing that the compounds of the present invention can bind to human ENT1. The principle of the assay is a competition between the compounds of this invention and Sahenta-DY647, an ENT1 inhibitor that emits fluorescence (Ex = 630 nm, Em = 670 nm). By measuring the fluorescence at the end of the assay we could assess the binding potency of the compounds of the present invention.
JAR cells expressing ENT1 were bought from ATCC® (HTB-144TM). Cells were cultured in RPMI 1640 medium (LONZA®, #BE12-702F/U1) supplemented with 10% FBS (GIBCO®, #10270-106), 10 mM Hepes (LONZA®, #BE17-737E), 1 mM Sodium Pyruvate (LONZA®, #BE13-115E) and 2% Penicillin/Streptomycin (LONZA®, #DE17-603E) at 37° C. and 5% CO2. The assay was conducted on the following buffer: HBSS (LONZA®, #LO-527F) supplemented with 10 mM Hepes (LONZA®, #BE17-737E) and 0.1% BSA (Miltenyi®, #130-091-376) on the day of the assay. JAR cells were resuspended in the described buffer. Compounds of the present invention and Sahenta-DY647 were diluted 200X in the described buffer.
A total of 50000 cells were pre-incubated for 30 min at 4° C. with the compounds of the present invention before adding the corresponded IC90 of Sahenta-DY647 (100 nM) and incubate once more for 30 min at 4° C. The total volume of the reaction was 100 µL (50 µL of cells, 25 µL of the compounds of the present invention and 25 µL of Sahenta-DY647) in a 96 well plate, U-bottom (Greiner®, #650-180). The plates were washed 2X by centrifugation (4 min, 400 rcf at 4° C.) in the same buffer. Cells were resuspended in 70 µL of the buffer and 50 µL was transferred to a Black 384 Optiplate (PerkinElmer®, #6007279). Fluorescence (Ex = 630 nm, Em = 670 nm) was acquired on a Spectramax i3x (Molecular Devices®).

Structure (SMILES) | IC50 [nM]
COc1cc2cc(c1OC)OCCCC(OC(=O)c1cccc(OC(F)F)c1)CCN1CCCN(CCCOC2=O)CC1 (stereo not drawn) [Compound 75, 74,75-dimethoxy-6-oxo-5,8-dioxa-1(1,4)-diazepana-7(1,3)-benzenacyclotetradecaphane-12-yl 3-(difluoromethoxy)benzoate] | 20 to 500
COc1cc2cc(c1OC)OCCCC(OC(=O)c1ccc(F)c(C(F)(F)F)c1)CCN1CCCN(CCCOC2=O)CC1 (stereo not drawn) [Compound 81, 74,75-dimethoxy-6-oxo-5,8-dioxa-1(1,4)-diazepana-7(1,3)-benzenacyclotetradecaphane-12-yl 4-fluoro-3-(trifluoromethyl)benzoate] | 1 to 20
COc1cc2cc(c1OC)OCCCC(OC(=O)c1ccc(C(F)(F)F)cc1)CCN1CCCN(CCCOC2=O)CC1 (stereo not drawn) [Compound 83, 74,75-dimethoxy-6-oxo-5,8-dioxa-1(1,4)-diazepana-7(1,3)-benzenacyclotetradecaphane-12-yl 4-(trifluoromethyl)benzoate] | 1 to 20
COc1cc2cc(c1OC)OCCCC(OC(=O)c1ccc3c(c1)ncn3C)CCN1CCCN(CCCOC2=O)CC1 (stereo not drawn) [Compound 89, 74,75-dimethoxy-6-oxo-5,8-dioxa-1(1,4)-diazepana-7(1,3)-benzenacyclotetradecaphane-12-yl 1-methyl-1 H-benzo [d] imidazole-5-carboxylate] | 1 to 20
COc1cc2cc(c1OC)OCCCC(OC(=O)c1ccc(-c3cnco3)cc1)CCN1CCCN(CCCOC2=O)CC1 (stereo not drawn) [Compound 90, 74,75-dimethoxy-6-oxo-5,8-dioxa-1(1,4)-diazepana-7(1,3)-benzenacyclotetradecaphane-12-yl 4-(oxazol-5-yl)benzoate] | 1 to 20
COc1cc2cc(c1OC)OCCCC(OC(=O)c1cc(Cl)c(Cl)cc1F)CCN1CCCN(CCCOC2=O)CC1 (stereo not drawn) [Compound 91, 74,75-dimethoxy-6-oxo-5,8-dioxa-1(1,4)-diazepana-7(1,3)-benzenacyclotetradecaphane-12-yl 4,5-dichloro-2-fluorobenzoate] | 1 to 20
CCOc1cc(C(=O)OC2CCCOc3cc(cc(OC)c3OC)C(=O)OCCCN3CCCN(CC2)CC3)cc(OCC)c1OCC (stereo not drawn) [Compound 92, 74,75-dimethoxy-6-oxo-5,8-dioxa-1(1,4)-diazepana-7(1,3)-benzenacyclotetradecaphane-12-yl 3,4,5-triethoxybenzoate] | 1 to 20
COc1cc2cc(c1OC)OCCCC(OC(=O)CCn1cnnn1)CCN1CCCN(CCCOC2=O)CC1 (stereo not drawn) [Compound 98, 74,75-dimethoxy-6-oxo-5,8-dioxa-1(1,4)-diazepana-7(1,3)-benzenacyclotetradecaphane-12-yl 3-(1 H-tetrazol-1-yl)propanoate] | 1 to 20
CNC(=O)CCC(=O)OC1CCCOc2cc(cc(OC)c2OC)C(=O)OCCCN2CCCN(CC1)CC2 (stereo not drawn) [Compound 101, 74,75-dimethoxy-6-oxo-5,8-dioxa-1(1,4)-diazepana-7(1,3)-benzenacyclotetradecaphane-12-yl 4-(methylamino)-4-oxobutanoate] | 1 to 20
COc1cc2cc(c1OC)OCCCC(OC(=O)CCC(=O)N1CCOCC1)CCN1CCCN(CCCOC2=O)CC1 (stereo not drawn) [Compound 103, 74,75-dimethoxy-6-oxo-5,8-dioxa-1 (1,4)-diazepana-7(1,3)-benzenacyclotetradecaphane-12-yl 4-morpholino-4-oxobutanoate] | 1 to 20
COc1cc2cc(c1OC)OCCCC(n1nnc(-c3ccccc3)n1)CCN1CCCN(CCCOC2=O)CC1 (stereo not drawn) [Compound 107, 74,75-dimethoxy-12-(5-phenyl-2 H-tetrazol-2-yl)-5,8-dioxa-1(1,4)-diazepana-7(1,3)-benzenacyclotetradecaphan-6-one] | 1 to 20

Other lines, results leading:

IC50 [nM] | Structure (SMILES)
20 to 500 | COc1cc2cc(c1OC)OCCCC(OC(=O)c1cc(Cl)cc(Cl)c1)CCN1CCCN(CCCOC2=O)CC1 (stereo not drawn) [Compound 76, 74,75-dimethoxy-6-oxo-5,8-dioxa-1(1,4)-diazepana-7(1,3)-benzenacyclotetradecaphane-12-yl 3,5-dichlorobenzoate]
1 to 20 | COc1cc2cc(c1OC)OCCCC(OC(=O)c1cccc(Cl)c1Cl)CCN1CCCN(CCCOC2=O)CC1 (stereo not drawn) [Compound 78, 74,75-dimethoxy-6-oxo-5,8-dioxa-1(1,4)-diazepana-7(1,3)-benzenacyclotetradecaphane-12-yl 2,3-dichlorobenzoate]
1 to 20 | COc1cc2cc(c1OC)OCCCC(OC(=O)c1c(F)ccc(C)c1Cl)CCN1CCCN(CCCOC2=O)CC1 (stereo not drawn) [Compound 79, 74,75-dimethoxy-6-oxo-5,8-dioxa-1(1,4)-diazepana-7(1,3)-benzenacyclotetradecaphane-12-yl 2-chloro-6-fluoro-3-methylbenzoate]
1 to 20 | COc1cc2cc(c1OC)OCCCC(OC(=O)c1ccc(C#N)c(F)c1)CCN1CCCN(CCCOC2=O)CC1 (stereo not drawn) [Compound 82, 74,75-dimethoxy-6-oxo-5,8-dioxa-1(1,4)-diazepana-7(1,3)-benzenacyclotetradecaphane-12-yl 4-cyano-3-fluorobenzoate]
1 to 20 | COc1cc2cc(c1OC)OCCCC(OC(=O)c1cc(F)cc(F)c1)CCN1CCCN(CCCOC2=O)CC1 (stereo not drawn) [Compound 84, 74,75-dimethoxy-6-oxo-5,8-dioxa-1(1,4)-diazepana-7(1,3)-benzenacyclotetradecaphane-12-yl 3,5-difluorobenzoate]
1 to 20 | COc1cc2cc(c1OC)OCCCC(OC(=O)c1ccc(F)c(F)c1)CCN1CCCN(CCCOC2=O)CC1 (stereo not drawn) [Compound 85, 74,75-dimethoxy-6-oxo-5,8-dioxa-1(1,4)-diazepana-7(1,3)-benzenacyclotetradecaphane-12-yl 3,4-difluorobenzoate]
1 to 20 | COc1cc2cc(c1OC)OCCCC(OC(=O)c1ccc(F)c(C#N)c1)CCN1CCCN(CCCOC2=O)CC1 (stereo not drawn) [Compound 86, 74,75-dimethoxy-6-oxo-5,8-dioxa-1(1,4)-diazepana-7(1,3)-benzenacyclotetradecaphane-12-yl 3-cyano-4-fluorobenzoate]
1 to 20 | COc1cc2cc(c1OC)OCCCC(OC(=O)c1ccc(C#N)cc1)CCN1CCCN(CCCOC2=O)CC1 (stereo not drawn) [Compound 87, 74,75-dimethoxy-6-oxo-5,8-dioxa-1(1,4)-diazepana-7(1,3)-benzenacyclotetradecaphane-12-yl 4-cyanobenzoate]
1 to 20 | COc1cc2cc(c1OC)OCCCC(OC(=O)CCC#N)CCN1CCCN(CCCOC2=O)CC1 (stereo not drawn) [Compound 95, 74,75-dimethoxy-6-oxo-5,8-dioxa-1(1,4)-diazepana-7(1,3)-benzenacyclotetradecaphane-12-yl 3-cyanopropanoate]
1 to 20 | COc1cc2cc(c1OC)OCCCC(OC(=O)CCn1cncn1)CCN1CCCN(CCCOC2=O)CC1 (stereo not drawn) [Compound 102, 74,75-dimethoxy-6-oxo-5,8-dioxa-1 (1,4)-diazepana-7(1,3)-benzenacyclotetradecaphane-12-yl 3-(1H-1,2,4-triazol-1-yl)propanoate]
1 to 20 | COc1cc2cc(c1OC)OCCCC(OC(=O)CCOc1ccc(F)cc1)CCN1CCCN(CCCOC2=O)CC1 (stereo not drawn) [Compound 104, 74,75-dimethoxy-6-oxo-5,8-dioxa-1(1,4)-diazepana-7(1,3)-benzenacyclotetradecaphane-12-yl 3-(4-fluorophenoxy)propanoate]
1 to 20 | COc1cc2cc(c1OC)OCCCC(OC(=O)C1CCC(F)(F)CC1)CCN1CCCN(CCCOC2=O)CC1 (stereo not drawn) [Compound 105, 74,75-dimethoxy-6-oxo-5,8-dioxa-1(1,4)-diazepana-7(1,3)-benzenacyclotetradecaphane-12-yl 4,4-difluorocyclohexane-1-carboxylate]
1 to 20 | COc1cc2cc(c1OC)OCCCC(OC(=O)C1CCC(C(F)(F)F)CC1)CCN1CCCN(CCCOC2=O)CC1 (stereo not drawn) [Compound 106, 74,75-dimethoxy-6-oxo-5,8-dioxa-1(1,4)-diazepana-7(1,3)-benzenacyclotetradecaphane-12-yl 4-(trifluoromethyl)cyclohexane-1-carboxylate]
